Data published in patent US11530244B2, “Cyclic polypeptides for PCSK9 inhibition” (priority 2018, dated 2022).
Starred links: 1 amine or outer side, 2 acyl side, 3 side chain; linkers in the order of their positions; H or OH if unused. Positions of bridges follow the written chain, without caps; N, C: chain ends. Non-standard residues stand in square brackets, D forms with d. Residues, ends and D or L forms follow the SMILES beside them. X5 = O=C([C@@H]1C[C@H](SCc2ccc(C[*:3])cc2)CN1[*:1])[*:2]; Pro(cis-4-OPh) = O=C(O)[C@@H]1C[C@H](Oc2ccccc2)CN1; Pro(cis-4-CF3) = O=C(O)[C@@H]1C[C@H](C(F)(F)F)CN1; X29 = O=C([C@H](Cc1ccc(CC=[*:3])cc1)N[*:1])[*:2]; Trp(5-F) = N[C@@H](Cc1c[nH]c2ccc(F)cc12)C(=O)O; Phe(4-CH2NH2) = NCc1ccc(C[C@H](N)C(=O)O)cc1; Pro(cis-4-F) = O=C(O)[C@@H]1C[C@H](F)CN1; Hag = O=C([C@H](CCC=[*:3])N[*:1])[*:2]; mXylylene = c1cc(C[*:1])cc(C[*:2])c1; Glutaryl = O=C(CCCC(=O)[*:2])[*:1]; αMeP = C[C@@]1(C(=O)O)CCCN1; Mpa = O=C(O)CCS

Key:
Assay type in all cases: binding
[1] = molecular target: human PCSK9 / human LDLR EGFa domain interaction (Homo sapiens (Human), UniProt Q8NBP7); assay: TR-FRET assay of inhibition of the PCSK9-LDLR protein-protein interaction; conditions: TR-FRET, 20 nM human PCSK9, 20 nM human LDLR EGFa domain, 2 hours room temperature; read-out: IC50
human PCSK9 / human LDLR EGFa domain interaction, sequence (Q8NBP7 153-692): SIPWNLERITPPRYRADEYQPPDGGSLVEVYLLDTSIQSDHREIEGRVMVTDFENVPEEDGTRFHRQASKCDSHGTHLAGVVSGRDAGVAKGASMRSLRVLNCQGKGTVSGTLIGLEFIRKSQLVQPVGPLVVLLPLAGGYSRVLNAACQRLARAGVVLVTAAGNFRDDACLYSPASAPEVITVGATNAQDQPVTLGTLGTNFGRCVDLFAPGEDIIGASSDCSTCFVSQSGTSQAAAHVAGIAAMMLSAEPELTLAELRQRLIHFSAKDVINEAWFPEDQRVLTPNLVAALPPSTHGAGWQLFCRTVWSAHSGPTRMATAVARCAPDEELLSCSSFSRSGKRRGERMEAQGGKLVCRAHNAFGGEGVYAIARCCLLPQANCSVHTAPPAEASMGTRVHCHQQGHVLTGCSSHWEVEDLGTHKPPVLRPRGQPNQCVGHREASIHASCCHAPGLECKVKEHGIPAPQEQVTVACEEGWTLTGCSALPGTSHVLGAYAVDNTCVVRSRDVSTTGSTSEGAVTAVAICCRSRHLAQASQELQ
human PCSK9 / human LDLR EGFa domain interaction, sequence (Q8NBP7 31-152 partner): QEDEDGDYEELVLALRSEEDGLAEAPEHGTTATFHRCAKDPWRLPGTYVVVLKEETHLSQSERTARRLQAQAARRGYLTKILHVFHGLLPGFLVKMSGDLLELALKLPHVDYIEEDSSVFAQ
Outline: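 20 nM biotin-avitag PCSK9 + 20 nM His-LDLR EGFa; 5 nM Ulight-SA / 5 nM Eu-anti-His; 2 h RT; HEPES 50 mM, NaCl 150 mM, CaCl2 5 mM, 0.01% BSA, 0.01% P20. Half-maximal inhibition, 4-parameter fit.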

PCSK9 [2] = molecular target: T1, PCSK9 (Homo sapiens (Human), UniProt Q8NBP7); assay: PCSK9 Alexa FRET Standard assay (displacement of AlexaFluor647 tagged cyclic peptide Reagent A); conditions: PCSK9 Alexa FRET Standard assay, 0.5 nM PCSK9, 20 nM AF cyclic peptide Reagent A; read-out: IC50
T1 sequence (Q8NBP7 153-692): as the sequence (Q8NBP7 153-692) above
Outline: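 TR-FRET displacement: 0.5 nM biotinylated PCSK9 with 1.25 nM Strep-Eu and 20 nM AlexaFluor-tagged cyclic peptide (final) in 50 mM HEPES pH 7.4, 0.15 M NaCl, 5 mM CaCl2, 0.01% BSA, 0.01% P20, ≥2 h at room temperature. IC50 from sigmoidal fit, converted to Ki via peptide KD; falling Eu counts flagged false positives.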

PCSK9 [3] = molecular target: T1, PCSK9; assay: PCSK9 Alexa FRET Plus assay (displacement of AlexaFluor647 tagged cyclic peptide Reagent B); conditions: Alexa FRET Plus, 0.5 nM PCSK9, 960 nM AF cyclic peptide Reagent B; read-out: IC50
Outline: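 TR-FRET displacement with final 0.5 nM biotinylated PCSK9, 1.25 nM Strep-Eu and 960 nM AlexaFluor-tagged cyclic peptide in HEPES pH 7.4, NaCl, CaCl2, BSA, P20; ≥2 h at room temperature. IC50 from sigmoidal fit, converted to Ki using peptide KD. Falling europium counts flagged false positives.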

Structure (SMILES) | IC50 [1] [nM] | IC50 (PCSK9 [2]) [nM] | IC50 (PCSK9 [3]) [nM]
COc1ccc(C[C@@H]2NC(=O)[C@@H]3CCCCC(=O)N[C@H]4C[C@@H](C(=O)N3)N(C4)C(=O)[C@H](Cc3c[nH]c4ccc(F)cc34)NC(=O)[C@H](Cc3c[nH]c4ccc(F)cc34)NC(=O)[C@@H](C)NC(=O)[C@H](CCCN=[N+]=[N-])NC(=O)CCSCc3cccc(c3)CCSCNC(=O)[C@]3(C)CCCN3C2=O)cc1 [Compound 520] | 0.1 to 100 | 0.11 to 100 | 0.1 to 100
NCCCC[C@@H]1NC(=O)CCSCc2ccc(cc2)CS[C@H]2C[C@@H](C(N)=O)N(C2)C(=O)[C@H](Cc2ccc(O)cc2)NC(=O)[C@H](Cc2cnc[nH]2)NC(=O)[C@H](CC(=O)O)NC(=O)[C@H](Cc2c[nH]c3ccc(F)cc23)NC(=O)[C@H](Cc2c[nH]c3ccc(F)cc23)NC(=O)CNC1=O [Compound 328] ([Mpa]KG[Trp(5-F)][Trp(5-F)]DHY[X5]-NH2; thioether 1-9) | 0.1 to 100 | 100 to 1000 | 500 to 5000
NCCCC[C@@H]1NC(=O)CCSCc2cccc(c2)CSC[C@@H](C(N)=O)NC(=O)[C@@H]2C[C@H](Oc3ccccc3)CN2C(=O)[C@H](Cc2ccc(O)cc2)NC(=O)[C@H](Cc2cnc[nH]2)NC(=O)[C@H](CC(=O)O)NC(=O)[C@H](Cc2c[nH]c3ccc(F)cc23)NC(=O)[C@H](Cc2c[nH]c3ccc(F)cc23)NC(=O)CNC1=O [Compound 367] ([Mpa]KG[Trp(5-F)][Trp(5-F)]DHY[Pro(cis-4-OPh)]C-NH2; linker 1-10 via mXylylene) | 0.1 to 100 | 100 to 1000 | 500 to 5000
NCCCC[C@@H]1NC(=O)CCSCc2cccc(c2)CSC[C@@H](C(N)=O)NC(=O)[C@@H]2C[C@H](C(F)(F)F)CN2C(=O)[C@H](Cc2ccc(O)cc2)NC(=O)[C@H](Cc2c[nH]cn2)NC(=O)[C@H](CC(=O)O)NC(=O)[C@H](Cc2c[nH]c3ccc(F)cc23)NC(=O)[C@H](Cc2c[nH]c3ccc(F)cc23)NC(=O)CNC1=O [Compound 296] ([Mpa]KG[Trp(5-F)][Trp(5-F)]DHY[Pro(cis-4-CF3)]C-NH2; linker 1-10 via mXylylene) | 0.1 to 100 | 0.11 to 100 | 0.1 to 100
CCCCCCCCCCCCCCCC(=O)N[C@@H](CCC(=O)NCCOCCOCC(=O)NCCOCCOCC(=O)NCCCC[C@H](NC(C)=O)C(=O)NCCOCCOCCOCCOCCOCCOCCOCCOCCOCCOCCOCCOCCC(=O)N[C@@H]1CSCc2cccc(c2)CSC[C@@H](C(N)=O)NC(=O)[C@]2(C)CCCN2C(=O)[C@H](Cc2ccc(O)cc2)NC(=O)[C@H]([C@@H](C)O)NC(=O)N2C[C@@H](F)C[C@H]2C(=O)[C@H](Cc2c[nH]c3ccc(F)cc23)NC(=O)[C@H](Cc2c[nH]c3ccc(F)cc23)NC(=O)[C@@H](C)NC(=O)[C@H](C)NC1=O)C(=O)O [Compound 136] |  | 0.11 to 100 | 0.1 to 100
C[C@@]12CCCN1C(=O)[C@H](Cc1ccc(O)cc1)NC(=O)CN1C(=O)[C@H](COc3ccccc31)NC(=O)[C@H](Cc1c[nH]c3ccc(F)cc13)NC(=O)[C@H](Cc1c[nH]c3ccc(F)cc13)NC(=O)CNC(=O)[C@H](CCCCN)NC(=O)CCSCc1cccc(c1)CSC[C@@H](C(N)=O)NC2=O [Compound 126] |  | 0.11 to 100 | 0.1 to 100
NC(=O)[C@@H]1Cc2ccc(cc2)CNC(=O)CCCC(=O)NCC(=O)N[C@@H](Cc2c[nH]c3ccc(F)cc23)C(=O)N[C@@H](Cc2c[nH]c3ccc(F)cc23)C(=O)N[C@@H](CC(=O)O)C(=O)N[C@@H](Cc2cnc[nH]2)C(=O)N[C@@H](Cc2ccc(O)cc2)C(=O)N1 [Compound 437] (G[Trp(5-F)][Trp(5-F)]DHY[Phe(4-CH2NH2)]-NH2; linker N-7 via Glutaryl) |  | 0.11 to 100 | 100 to 500
COc1ccc(C[C@@H]2NC(=O)[C@H]([C@@H](C)O)NC(=O)[C@@H]3C[C@H](F)CN3C(=O)[C@H](Cc3c[nH]c4ccc(F)cc34)NC(=O)[C@H](Cc3c[nH]c4ccc(F)cc34)NC(=O)[C@@H](C)NC(=O)[C@H](CCCCN)NC(=O)[C@@H](NC(C)=O)CC/C=C/Cc3ccc(cc3)C[C@@H](C(N)=O)NC(=O)[C@]3(C)CCCN3C2=O)cc1 [Compound 138] (Ac-[Hag]K[dA][Trp(5-F)][Trp(5-F)][Pro(cis-4-F)]TY(Me)[αMeP][X29]-NH2; staple (E) 1-10) |  | 100 to 1000 | 500 to 5000
C[C@@]12CCCN1C(=O)[C@H](Cc1ccc(O)cc1)NC(=O)[C@H]1CS[C@H]3CC[C@H](NC(=O)[C@H](Cc4c[nH]c5ccc(F)cc45)NC(=O)[C@H](Cc4c[nH]c5ccc(F)cc45)NC(=O)CNC(=O)[C@H](CCCCN)NC(=O)CCSCc4cccc(c4)CSC[C@@H](C(N)=O)NC2=O)C(=O)N31 [Compound 475] |  | 21000 to 50000 | 500 to 5000
